# In patent US20060040390A1, “Device, method, system, and program for intelligent in vivo cell-level chemical or genetic material delivery” (priority 2004, published 2006):
# Key:
# B104 cells [1] = experiment: In vitro survival assay with caspase inhibitor, B104 cells that do not express TrkA; type: cell-based, rat; settings: B104 cells (no TrkA), serum free media
# Method: (§1) 4-3.6 cells are placed in serum free media (SFM, PFHM-II, GIBCO, Toronto), where they undergo apoptosis (serum-withdrawal model).
# Cells are then cultured for ~48 hrs. Cell growth/survival is calculated relative to 5% serum (standardized to 100%). Addition of serum protects cells in SFM from death.
# Cell survival is measured by quantitative tetrazolium salt reagent (MTT, Sigma) and optical density (OD) readings as described [Maliartchouk, 1997]. n=3-6.
# Testing 4-3.6 Cell Survival (MTT, % of serum control). Serum free media 0.+−. 4 5%. Serum 100.+−. 2 20 nM zVAD−2.+−. 3 VAD-5C3 conjugate (20 nM VAD equivalent, 1 nM 41.+−. 1 5C3). […] Typicaly, […] mAb 5C3 alone (unconjugated) does protect 4-3.6 cells in SFM to ~10%, which is a much lower degree of protection than equimolar doses of the VAD-5C3 conjugate.
# 4-3.6 cells = experiment: In vitro survival assay with caspase inhibitor, serum-withdrawal model, 4-3.6 cells; type: cell-based, rat; settings: ~48 hrs
# Excerpt: as §1
# KB-V cells = experiment: cells
# [2] = test system: mouse fibroblasts stably transfected with IGF-R; settings: 72 h
# [3] = test system: cells that do not express p75; experiment: Selectivity of paclitaxel-MC192 on cells that do not express p75; type: cell-based
# B104 cells [4] = test system: B104 cells
# Method: The B104 cells are a rat neuroblastoma line that expresses p75 receptors (p75^+). The 4-3.6 cells are B104 cells stably transfected with human TrkA cDNA (p75^+, TrkA^+).
# Therefore, tested is whether a single bolus of paclitaxel is an effective cytotoxic agent. Cells ae exposed to the indicated concentration of paclitaxel for 30 minutes at 4° C. Then, cells are plated in a 96-well plate (Falcon); this group represents treatment with paclitaxel present in a constant manner. The remaining cells are washed free of excess paclitaxel prior to plating; this group represents a single exposure to paclitaxel. […] Optical density readings of MTT are done in an EIA Plate Reader model 2550 (Bio-Rad) at 595 nm.
# Paclitaxel is lipophilic and readily penetrates the cell membrane. […] Tested is whether a single short term exposure to paclitaxel can be effective in killing neuroblastoma B104 cells. These assays are done at 4°
# The mAbs purpose is purely for target binding.
# [5] = test system: neuroblastoma (B104 cells) xenografted in nude mice; experiment: In vivo tumor study, B104 neuroblastoma xenografted in nude mice
# Excerpt: Nude mice (seven weeks old, female) are used to test the effect of paclitaxel in tumor progression. […] Tumor growth is monitored daily. Mice are then randomized and treatments are initiated. […] Measurements of tumor volume are taken using calipers, every day post treatment for a total of 25 days.
compound,measurement,setting,value
benzoic acid-Valine-Alanine-Aspartic acid-O-methyl-fluoromethyl-Iketone peptide [zVAD],protection of B104 cells from death,B104 cells [1],Neither 20 nM zVAD nor VAD-5c3 conjugate afford protection
same,protection of cells in SFM,4-3.6 cells,does not protect cells
COc1cccc2c1C(=O)c1c(O)c3c(c(O)c1C2=O)C[C@@](O)(C(=O)CO)C[C@@H]3O[C@H]1C[C@H](N)[C@H](O)[C@H](C)O1 [Doxorubicin],cytotoxicity on multidrug resistant KB-V cells compared to sensitive KB cells,KB-V cells,inactive on KB-V cells unless Verapamil was added
same,IC50,"KB-V cells; Homo sapiens, KBV, 72 h, read-out: IC50 ± SEM",> 320 nM
same,cytotoxicity with or without excess antibody,[2],the same cytotoxicity whether excess of mig or α-IR3 is present or not
CC(=O)O[C@H]1C(=O)[C@@]2(C)[C@H]([C@H](OC(=O)c3ccccc3)[C@]3(O)C[C@H](OC(=O)[C@H](O)[C@@H](NC(=O)c4ccccc4)c4ccccc4)C(C)=C1C3(C)C)[C@]1(OC(C)=O)CO[C@@H]1C[C@@H]2O [paclitaxel],cytotoxicity on cells that do not express p75,[3],dose-dependent cytotoxicity
same,"cytotoxic effect, single exposure versus constant presence",B104 cells [4],generally the same whether the drug is present in the culture throughout or after a single exposure
same,"cytotoxicity, constant versus single dose","B104 cells [4]; rat, 48 h",the same after 48 hours whether a constant or a single dose is given
same,"antitumor activity, tumor growth","[5]; nude mice, five IP injections every two days, versus control (HBSS)",not able to do so
same,efficacy of free drug at the conjugate's effective dose,[5]; ~3.5 nM,not effective at this dose
